# PubChem BioAssay AID328 (DTP/NCI, 2004)
# “And” between values parts separate entries of the source, which are not always exact repeats. Equal values may be shown once. Toxic doses and inconclusive results are not listed.
# System: BDF1 mice, P388 leukemia ip, median survival T/C
# Experiment: NCI In Vivo Anticancer Drug Screen. Data for tumor model P388 Leukemia (intraperitoneal) in B6D2F1 (BDF1) mice
# Settings: endpoint: median survival time, higher = longer survival
# Summary of the method: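 Read-out is survival of treated animals expressed relative to the vehicle group, as a T/C ratio.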
# [1] = dose: 100.0 mg/kg/injection, schedule: Q04DX003 (ip), vehicle: saline with Tween-80
# [2] = dose: 200.0 mg/kg/injection, schedule: Q04DX003 (ip), vehicle: saline with Tween-80
# [3] = dose: 400.0 mg/kg/injection, schedule: Q04DX003 (ip), vehicle: saline with Tween-80
# [4] = dose: 33.0 mg/kg/injection, schedule: Q01DX009 (ip), vehicle: saline with Tween-80
# [5] = dose: 50.0 mg/kg/injection, schedule: Q01DX009 (ip), vehicle: saline with Tween-80
# [6] = dose: 100.0 mg/kg/injection, schedule: Q04DX003 (ip), vehicle: Klucel (hydroxypropylcellulose) (HPC)
# [7] = dose: 200.0 mg/kg/injection, schedule: Q04DX003 (ip), vehicle: Klucel (hydroxypropylcellulose) (HPC)
# [8] = dose: 25.0 mg/kg/injection, schedule: Q01DX009 (ip), vehicle: saline with Tween-80
# [9] = dose: 75.0 mg/kg/injection, schedule: Q04DX003 (ip), vehicle: saline sonified
# [10] = dose: 100.0 mg/kg/injection, schedule: Q01DX009 (ip), vehicle: saline with Tween-80
# [11] = dose: 150.0 mg/kg/injection, schedule: Q04DX003 (ip), vehicle: saline sonified
# [12] = dose: 100.0 mg/kg/injection, schedule: Q01DX001 (ip), vehicle: saline sonified
# [13] = dose: 200.0 mg/kg/injection, schedule: Q01DX001 (ip), vehicle: saline sonified
# [14] = dose: 400.0 mg/kg/injection, schedule: Q01DX001 (ip), vehicle: saline sonified
structure (smiles),measurement,setting,value
CC1=C(C)CC2C(=O)C(C(O)CC(C)C)=CC(=O)C2C1 (stereo unspecified),T/C,[1],100 % of control
same,T/C,[2],113 % of control
same,T/C,[3],93 % of control
CC(=O)c1ccc(C(=O)CC(O)(C(F)(F)F)C(F)(F)F)cc1,T/C,"dose: 50.0 mg/kg/injection, schedule: Q01DX009 (ip), vehicle: other",104 % of control
same,T/C,"dose: 50.0 mg/kg/injection, schedule: Q04DX003 (ip), vehicle: other",90 % of control
same,T/C,"dose: 100.0 mg/kg/injection, schedule: Q01DX009 (ip), vehicle: other",104 % of control
same,T/C,"dose: 100.0 mg/kg/injection, schedule: Q04DX003 (ip), vehicle: other",95 % of control
CS(=O)(=O)OCCN(CCOS(C)(=O)=O)c1ccc(C(=O)O)cc1,T/C,[4],195 % of control
same,T/C,[5],200 % of control
same,T/C,"dose: 75.0 mg/kg/injection, schedule: Q01DX009 (ip), vehicle: saline with Tween-80",236 % of control
same,T/C,"dose: 300.0 mg/kg/injection, schedule: Q04DX003 (ip), vehicle: saline with Tween-80",113 % of control
CC(C)=CCNc1ncnc2c1ncn2C1OC(CO)C(O)C1O (stereo unspecified),T/C,"dose: 50.0 mg/kg/injection, schedule: Q04DX003 (ip), vehicle: Klucel (hydroxypropylcellulose) (HPC)",95 % of control
same,T/C,[6],100 % of control
same,T/C,[1],104 % of control
same,T/C,[7],95 % of control
same,T/C,[2],100 % of control
N/C(=N\[N+](=O)[O-])N(CCCCl)N=O,T/C,[8],103 % of control
same,T/C,"dose: 27.0 mg/kg/injection, schedule: Q01DX009 (ip), vehicle: Klucel (hydroxypropylcellulose) (HPC)",152 % of control
same,T/C,[4],108 % of control
same,T/C,"dose: 37.5 mg/kg/injection, schedule: Q04DX003 (ip), vehicle: saline sonified",100 % of control
same,T/C,"dose: 40.0 mg/kg/injection, schedule: Q01DX009 (ip), vehicle: Klucel (hydroxypropylcellulose) (HPC)",157 % of control
same,T/C,[5],107 % of control
same,T/C,"dose: 60.0 mg/kg/injection, schedule: Q01DX009 (ip), vehicle: Klucel (hydroxypropylcellulose) (HPC)",166 % of control
same,T/C,[9],100 % of control
same,T/C,[10],120 % of control
same,T/C,[1],109 % of control
same,T/C,"dose: 112.5 mg/kg/injection, schedule: Q01DX009 (ip), vehicle: saline with Tween-80",154 % of control
same,T/C,[11],100 % of control
same,T/C,"dose: 176.0 mg/kg/injection, schedule: Q04DX003 (ip), vehicle: saline sonified",100 % of control
same,T/C,[2],122 % of control
CC12CCC(Cl)CC1=CCC1C2CCC2(C)C1CCCN2CCCl (stereo unspecified),T/C,"dose: 12.5 mg/kg/injection, schedule: Q01DX001 (ip), vehicle: saline with Tween-80",105 % of control
same,T/C,"dose: 12.5 mg/kg/injection, schedule: Q01DX001 (ip), vehicle: saline",102 % of control
same,T/C,"dose: 25.0 mg/kg/injection, schedule: Q01DX001 (ip), vehicle: saline with Tween-80",113 % of control
same,T/C,"dose: 25.0 mg/kg/injection, schedule: Q01DX001 (ip), vehicle: saline",117 % of control
O=C(O)CCC1(c2ccccc2)CCCC1=O (stereo unspecified),T/C,"dose: 0.39 mg/kg/injection, schedule: Q01DX009 (ip), vehicle: water",95 % of control
same,T/C,"dose: 0.39 mg/kg/injection, schedule: Q04DX003 (ip), vehicle: water",104 % of control
same,T/C,"dose: 0.78 mg/kg/injection, schedule: Q01DX009 (ip), vehicle: water",87 % of control and 122 % of control
same,T/C,"dose: 0.78 mg/kg/injection, schedule: Q04DX003 (ip), vehicle: water",100 % of control
same,T/C,"dose: 1.56 mg/kg/injection, schedule: Q01DX009 (ip), vehicle: water",101 % of control and 103 % of control
same,T/C,"dose: 1.56 mg/kg/injection, schedule: Q04DX003 (ip), vehicle: water",97 % of control
same,T/C,"dose: 3.12 mg/kg/injection, schedule: Q01DX009 (ip), vehicle: water",88 % of control
same,T/C,"dose: 3.12 mg/kg/injection, schedule: Q04DX003 (ip), vehicle: water",97 % of control
same,T/C,"dose: 6.25 mg/kg/injection, schedule: Q01DX009 (ip), vehicle: water",87 % of control and 101 % of control
same,T/C,"dose: 12.5 mg/kg/injection, schedule: Q01DX009 (ip), vehicle: water",97 % of control
same,T/C,"dose: 50.0 mg/kg/injection, schedule: Q01DX009 (ip), vehicle: water",87 % of control
CNC(=S)N/N=C(\C)c1snc(C)c1Br,T/C,[8],94 % of control
same,T/C,[5],103 % of control
same,T/C,[10],96 % of control
NC(=O)N(CCCl)N=O,T/C,"dose: 0.25 mg/kg/injection, schedule: Q01DX010 (ip), vehicle: saline",190 % of control
same,T/C,"dose: 0.5 mg/kg/injection, schedule: Q01DX010 (ip), vehicle: saline",209 % of control and 213 % of control
same,T/C,"dose: 1.0 mg/kg/injection, schedule: Q01DX010 (ip), vehicle: saline",290 % of control and 300 % of control
same,T/C,"dose: 1.25 mg/kg/injection, schedule: Q01DX010 (ip), vehicle: saline",272 % of control and 168 % of control
same,T/C,"dose: 2.0 mg/kg/injection, schedule: Q01DX010 (ip), vehicle: saline",277 % of control
same,T/C,"dose: 2.5 mg/kg/injection, schedule: Q01DX010 (ip), vehicle: saline",118 % of control and 209 % of control
same,T/C,"dose: 4.0 mg/kg/injection, schedule: Q01DX010 (ip), vehicle: saline",90 % of control
COc1cc(OC)c(N=Cc2ccc3c(c2)OCO3)cc1Cl,T/C,[6],100 % of control
same,T/C,[7],100 % of control
O=c1[nH]cn[nH]1,T/C,[12],122 % of control
same,T/C,[13],95 % of control
same,T/C,[14],90 % of control
BrCCN(CCBr)c1ccc2c3c(cccc13)-c1ccccc1-2,T/C,"dose: 0.13 mg/kg/injection, schedule: Q01DX009 (ip), vehicle: saline",107 % of control
same,T/C,"dose: 0.25 mg/kg/injection, schedule: Q01DX009 (ip), vehicle: saline",92 % of control
same,T/C,"dose: 0.5 mg/kg/injection, schedule: Q01DX009 (ip), vehicle: saline",111 % of control
same,T/C,"dose: 0.68 mg/kg/injection, schedule: Q01DX009 (ip), vehicle: Klucel (hydroxypropylcellulose) (HPC)",107 % of control
same,T/C,"dose: 1.0 mg/kg/injection, schedule: Q01DX009 (ip), vehicle: Klucel (hydroxypropylcellulose) (HPC)",111 % of control
same,T/C,"dose: 1.0 mg/kg/injection, schedule: Q01DX009 (ip), vehicle: saline",111 % of control
same,T/C,"dose: 3.12 mg/kg/injection, schedule: Q01DX009 (ip), vehicle: Klucel (hydroxypropylcellulose) (HPC)",170 % of control
same,T/C,"dose: 21.0 mg/kg/injection, schedule: Q01DX009 (ip), vehicle: Klucel (hydroxypropylcellulose) (HPC)",173 % of control
same,T/C,"dose: 30.0 mg/kg/injection, schedule: Q01DX009 (ip), vehicle: Klucel (hydroxypropylcellulose) (HPC)",115 % of control
same,T/C,"dose: 45.0 mg/kg/injection, schedule: Q01DX009 (ip), vehicle: Klucel (hydroxypropylcellulose) (HPC)",220 % of control
same,T/C,"dose: 70.0 mg/kg/injection, schedule: Q01DX009 (ip), vehicle: Klucel (hydroxypropylcellulose) (HPC)",195 % of control
same,T/C,"dose: 176.0 mg/kg/injection, schedule: Q04DX003 (ip), vehicle: saline with Tween-80",104 % of control
same,T/C,[3],86 % of control
O=c1[nH]c(=S)c2c3c(sc2[nH]1)CCCC3,T/C,[9],100 % of control
same,T/C,[11],100 % of control
same,T/C,"dose: 300.0 mg/kg/injection, schedule: Q04DX003 (ip), vehicle: saline sonified",100 % of control
O=C(C=C(C(F)(F)F)C(F)(F)F)c1ccco1,T/C,"dose: 6.25 mg/kg/injection, schedule: Q01DX009 (ip), vehicle: saline with Tween-80",120 % of control
same,T/C,"dose: 12.5 mg/kg/injection, schedule: Q01DX009 (ip), vehicle: saline with Tween-80",120 % of control
O=C(CSc1nc2ccccc2s1)c1sc2sc3ccccc3[n+]2c1[O-],T/C,"dose: 50.0 mg/kg/injection, schedule: Q01DX005 (ip), vehicle: saline with Tween-80",97 % of control
same,T/C,"dose: 100.0 mg/kg/injection, schedule: Q01DX005 (ip), vehicle: saline with Tween-80",97 % of control
same,T/C,"dose: 200.0 mg/kg/injection, schedule: Q01DX005 (ip), vehicle: saline with Tween-80",87 % of control
O=C1CC(SC(=S)C2CCCC2=O)C(=O)N1 (stereo unspecified),T/C,[5],100 % of control
same,T/C,[10],110 % of control
same,T/C,"dose: 200.0 mg/kg/injection, schedule: Q01DX009 (ip), vehicle: saline with Tween-80",89 % of control
OC(C(c1ccccc1)N1CCCCC1)C(O)(c1ccccc1)c1ccccc1 (stereo unspecified),T/C,[12],100 % of control
same,T/C,[13],105 % of control
same,T/C,[14],100 % of control
CC(C)SC(=O)C[Si](C)(C)C,T/C,[1],166 % of control
same,T/C,[2],166 % of control
CCN(CC)P(=O)(N1CC1)N1CC1,T/C,"dose: 16.5 mg/kg/injection, schedule: Q04DX003 (ip), vehicle: saline",272 % of control
same,T/C,"dose: 25.0 mg/kg/injection, schedule: Q04DX003 (ip), vehicle: saline",90 % of control
